Laboratory results: patent US20030008814A1, “Pseudomycin phosphate prodrugs” (priority 2002, published 2003)

Experiment: Tail vein toxicity
Format: in vivo
Details: male ICR mice, IV lateral tail vein, 20 mg/kg at 0, 24, 48 and 72 hours, monitored 7 days; in comparison to pseudomycin B
Procedure: Mice were treated intravenously (IV) through the lateral tail vein with 0.1 ml of testing compound (20 mg/kg) at 0, 24, 48 and 72 hours. Two mice were included in each group. Compounds were formulated in 5.0% dextrose and sterile water for injection. The mice were monitored for 7 days following the first treatment and observed closely for signs of irritation including erythema, swelling, discoloration, necrosis, tail loss and any other signs of adverse effects indicating toxicity.
The mice used in the study were outbred, male ICR mice having an average weight between 18-20 g (available from Harlan Sprangue Dawley, Indianapolis, Ind.

C/C=C1\NC(=O)[C@H]([C@H](C)O)NC(=O)[C@H](CCNC(=O)OCc2ccc(OP(=O)(OCc3ccccc3)OCc3ccccc3)cc2)NC(=O)[C@H](CCCCNC(=O)OCc2ccc(OP(=O)(OCc3ccccc3)OCc3ccccc3)cc2)NC(=O)[C@H](CC(=O)O)NC(=O)[C@@H](CCNC(=O)OCc2ccc(OP(=O)(OCc3ccccc3)OCc3ccccc3)cc2)NC(=O)[C@@H](NC(=O)CC(O)CCCCCCCCCCC)COC(=O)[C@H]([C@H](O)CCl)NC(=O)[C@H](C(O)C(=O)O)NC1=O (stereo partly shown) [Compound 1A-1]
tail vein toxicity: improvement in tail vein toxicity
